Each structure is given as a SMILES string.

The source of these data is US6525055B1, “Tricyclic phthalazine derivatives as phosphodiesterase 4 inhibitors” (Zambon Group S.p.A., priority 1998, dated 2003).

The target in the test is PDE 4 enzyme. As to the kind of experiment: PDE 4 enzyme inhibition (SPA). It is filed as biochemical. As to conditions: PDE 4 purified from human PMNs, cAMP 1 μM, 40 minutes at 30° C. An excerpt: Evaluation of the PDE 4 Enzyme Inhibition a) Purification of Human Polymorphonucleate Leukocytes
The polymorphonucleate leukocytes (PMNs) were isolated from peripheral blood of healthy volunteers according to what described by Boyum A., Scand. J. Immunol., 1976, 5th suppl., 9). Shortly, the isolation of the PMNs was effected by Ficoll-Paque gradient centrifugation followed by sedimentation on dextrane and the erythrocyte contamination was eliminated by hypotonic lysis. […]
b) PDE 4 Enzyme Purification
The human PMNs were re-suspended in TRIS/HCl buffer (10 mM pH 7.8) containing MgCl2 (5 mM), EGTA (4 mM), mercaptoethanol (5 mM), TRlTON-X100 (1%), pepstatin A (1 μM), PMSF (100 μM) and leupeptin (1 μM), and homogenised by Polytron. […]
The enzyme activity was evaluated with an Amersham kit based on the SPA (Scintillation Proximity Assay) technique. […] The radioactivity due to the particles was measured in a […]. The results are expressed as percent activity versus the control present in each experiment. The IC50 values were calculated over 9 equidistant concentrations in logarithmic scale using a 4-parameters logistic function by software.

In turn, `COc1ccc2c(Cc3c(Cl)cncc3Cl)nn3c(C)nnc3c2c1` [Compound 2, 6-(3,5-Dichloro-pyridin-4-ylmethyl)-9-methoxy-3-methyl-[1,2,4]-triazole-[3,4-a]-phthalazine] came in with an IC50 of 207 nM.

A word on the IC50: it is the midpoint of a concentration-inhibition curve. Read a low IC50 as higher potency.
